Results reported in ChEMBL document CHEMBL3872204, “Synthesis and immunopotentiating activity of novel isoxazoline functionalized coumarins” (Eur J Med Chem, 2016).
Active and inactive are the calls of the source. No cut-off for these calls is given here.

Tests used:
[1] = tested on: Mus musculus; test: Immunopotentiating activity in sheep RBC-immunized BALB/c mouse assessed as increase in isolated splenic […] proliferation administered orally for 14 days followed by incubation of isolated splenocytes with ConA for 72 hrs by MTT assay; format: functional
[2] = organism: Mus musculus; test: Cytotoxicity in BALB/c mouse splenocytes at 100 ug/ml measured after 72 hrs by MTT assay; format: toxicity; conditions: splenocyte
[3] = tested on: Mus musculus; test: Immunopotentiating activity in sheep RBC-immunized BALB/c mouse assessed as CD8-positive T-cell content in spleen at 0.01 mg/kg, po for 14 days by flow cytometry (reference value: 1.47 +/- 0.04 10^7No_unit); format: functional
[4] = tested on: Mus musculus; test: Immunopotentiating activity in sheep RBC-immunized BALB/c mouse assessed as increase in isolated splenic T-cell proliferation administered orally for 14 days followed by incubation of isolated splenocytes with LPS for 72 hrs by MTT assay; format: functional
[5] = tested on: Mus musculus; test: Immunopotentiating activity in sheep RBC-immunized BALB/c mouse assessed as increase in delayed-type hypersensitivity response by measuring left hind foot pad thickness at 0.001 mg/kg, po qd administered 2 hrs post immunization for 7 days measured 24 to 48 hrs post SRBC challenge by spheromicrometer method; format: functional, organism-based
[6] = tested on: Mus musculus; test: Immunopotentiating activity in sheep RBC-immunized BALB/c mouse assessed as increase in IL2 production in splenocytes administered orally for 14 days followed by incubation with ConA for 48 hrs by ELISA; format: functional, cell-based
[7] = tested on: Mus musculus; test: Immunopotentiating activity in sheep RBC-immunized BALB/c mouse assessed as CD4-positive splenic T-cells at 0.01 mg/kg, po for 14 days by flow cytometry (reference value: 20.7 +/- 0.9%); format: functional
[8] = tested on: Mus musculus; test: Immunopotentiating activity in sheep RBC-immunized BALB/c mouse assessed as CD4-positive splenic T-cells at 0.1 mg/kg, po for 14 days by flow cytometry (reference value: 20.7 +/- 0.9%); format: functional
[9] = tested on: Mus musculus; test: Immunopotentiating activity in sheep RBC-immunized BALB/c mouse assessed as CD4-positive T-cell content in spleen at 0.1 mg/kg, po for 14 days by flow cytometry (reference value: 2.7 +/- 0.12 10^7No_unit); format: functional
[10] = tested on: Mus musculus; test: Immunopotentiating activity in sheep RBC-immunized BALB/c mouse assessed as CD8-positive splenic T-cells at 0.01 mg/kg, po for 14 days by flow cytometry (reference value: 13.3 +/- 0.34%); format: functional
[11] = tested on: Mus musculus; test: Immunopotentiating activity in sheep RBC-immunized BALB/c mouse assessed as B-cell activation by measuring IgG antibody titer in serum at 0.01 mg/kg, po for 14 days by hemagglutinination technique; format: functional, organism-based
[12] = tested on: Mus musculus; test: Immunopotentiating activity in sheep RBC-immunized BALB/c mouse assessed as increase in interferon-gamma production in splenocytes administered orally for 14 days followed by incubation with ConA for 48 hrs by ELISA; format: functional, cell-based
[13] = tested on: Mus musculus; test: Immunopotentiating activity in sheep RBC-immunized BALB/c mouse assessed as CD8-positive splenic T-cells at 0.001 mg/kg, po for 14 days by flow cytometry (reference value: 13.3 +/- 0.34%); format: functional
[14] = tested on: Mus musculus; test: Immunopotentiating activity in sheep RBC-immunized BALB/c mouse assessed as B-cell activation by measuring IgG antibody titer in serum at 0.1 mg/kg, po for 14 days by hemagglutinination technique; format: functional, organism-based
[15] = tested on: Mus musculus; test: Immunopotentiating activity in sheep RBC-immunized BALB/c mouse assessed as increase in isolated splenic T-cell proliferation administered orally for 14 days followed by incubation of isolated splenocytes with ConA for 72 hrs by MTT assay; format: functional
[16] = tested on: Mus musculus; test: Immunopotentiating activity in sheep RBC-immunized BALB/c mouse assessed as increase in IL4 production in splenocytes administered orally for 14 days followed by incubation with ConA for 48 hrs by ELISA; format: functional, cell-based
[17] = tested on: Mus musculus; test: Immunopotentiating activity in sheep RBC-immunized BALB/c mouse assessed as increase in isolated splenic B-cell proliferation administered orally for 14 days followed by incubation of isolated splenocytes with LPS for 72 hrs by MTT assay; format: functional
[18] = tested on: Splenic lymphocyte; test: Immunopotentiating activity in splenic lymphocytes (unknown origin) assessed as effect on proliferation by measuring cell viability pretreated followed by incubation of lymphocytes with LPS for 48 hrs by MTT assay; format: functional, cell-based
[19] = tested on: Mus musculus; test: Immunopotentiating activity in sheep RBC-immunized BALB/c mouse assessed as CD8-positive splenic T-cells at 0.1 mg/kg, po for 14 days by flow cytometry (reference value: 13.3 +/- 0.34%); format: functional
[20] = tested on: Mus musculus; test: Immunopotentiating activity in sheep RBC-immunized BALB/c mouse assessed as CD4-positive splenic T-cells at 0.001 mg/kg, po for 14 days by flow cytometry (reference value: 20.7 +/- 0.9%); format: functional
[21] = tested on: Mus musculus; test: Immunopotentiating activity in sheep RBC-immunized BALB/c mouse assessed as CD8-positive T-cell content in spleen at 0.1 mg/kg, po for 14 days by flow cytometry (reference value: 1.47 +/- 0.04 10^7No_unit); format: functional
[22] = tested on: Mus musculus; test: Immunopotentiating activity in sheep RBC-immunized BALB/c mouse assessed as ratio of CD4-positive splenic T-cells to CD8-positive splenic T-cells at 0.001 mg/kg, po for 14 days by flow cytometry (RVB = 1.56 +/- 0.09); format: functional
[23] = tested on: Splenic lymphocyte; test: Immunopotentiating activity in splenic lymphocytes (unknown origin) assessed as effect on proliferation by measuring cell viability pretreated followed by incubation of lymphocytes with ConA for 48 hrs by MTT assay; format: functional, cell-based
[24] = tested on: Mus musculus; test: Immunopotentiating activity in sheep RBC-immunized BALB/c mouse assessed as CD4-positive T-cell content in spleen at 0.001 mg/kg, po for 14 days by flow cytometry (reference value: 2.7 +/- 0.12 10^7No_unit); format: functional
[25] = tested on: Mus musculus; test: Immunopotentiating activity in sheep RBC-immunized BALB/c mouse assessed as ratio of CD4-positive splenic T-cells to CD8-positive splenic T-cells at 0.01 mg/kg, po for 14 days by flow cytometry (RVB = 1.56 +/- 0.09); format: functional
[26] = tested on: Mus musculus; test: Immunopotentiating activity in sheep RBC-immunized BALB/c mouse assessed as B-cell activation by measuring IgG antibody titer in serum at 0.001 mg/kg, po for 14 days by hemagglutinination technique; format: functional, organism-based
[27] = tested on: Mus musculus; test: Immunopotentiating activity in sheep RBC-immunized BALB/c mouse assessed as B-cell activation by measuring IgM antibody titer in serum at 0.01 mg/kg, po for 14 days measured on day 7 post dose by hemagglutinination technique; format: functional, organism-based
[28] = tested on: Mus musculus; test: Immunopotentiating activity in sheep RBC-immunized BALB/c mouse assessed as CD8-positive T-cell content in spleen at 0.001 mg/kg, po for 14 days by flow cytometry (reference value: 1.47 +/- 0.04 10^7No_unit); format: functional
[29] = tested on: Mus musculus; test: Immunopotentiating activity in sheep RBC-immunized BALB/c mouse assessed as ratio of CD4-positive splenic T-cells to CD8-positive splenic T-cells at 0.1 mg/kg, po for 14 days by flow cytometry (RVB = 1.56 +/- 0.09); format: functional
[30] = tested on: Mus musculus; test: Immunopotentiating activity in sheep RBC-immunized BALB/c mouse assessed as increase in macrophage production by measuring increase in NO production administered orally for 14 days followed by incubation with LPS for 48 hrs by Griess assay; format: functional
[31] = tested on: Mus musculus; test: Immunopotentiating activity in sheep RBC-immunized BALB/c mouse assessed as B-cell activation by measuring IgM antibody titer in serum at 0.001 mg/kg, po for 14 days measured on day 7 post dose by hemagglutinination technique; format: functional, organism-based
[32] = tested on: Mus musculus; test: Immunopotentiating activity in sheep RBC-immunized BALB/c mouse assessed as B-cell activation by measuring IgM antibody titer in serum at 0.1 mg/kg, po for 14 days measured on day 7 post dose by hemagglutinination technique; format: functional, organism-based
[33] = tested on: Mus musculus; test: Immunopotentiating activity in sheep RBC-immunized BALB/c mouse assessed as CD4-positive T-cell content in spleen at 0.01 mg/kg, po for 14 days by flow cytometry (reference value: 2.7 +/- 0.12 10^7No_unit); format: functional

Question: How did the Activity [1] turn out when COc1ccc(C2=NOC(COc3ccc4ccc(=O)oc4c3)C2)c(OC)c1 (stereo not drawn) was run?
Answer: Its Activity is “Dose-dependent effect”.

Question: And the Activity [2]?
Answer: Its Activity is “Non-Toxic”.

Question: And the Activity [3]?
Answer: The Activity was 1.29 ×10⁷ No_unit.

Question: What about the Activity [4] of the same molecule?
Answer: Its Activity is “Dose-dependent effect”.

Question: What about the Activity [5] of the same molecule?
Answer: The Activity was “Active”.

Question: What about the Activity [6] of the same molecule?
Answer: The Activity was “Dose-dependent effect”.

Question: And the Activity [7]?
Answer: Its Activity is 27.2%.

Question: What about the Activity [8] of the same molecule?
Answer: The Activity was 35.3%.

Question: And the Activity [9]?
Answer: The Activity was 1.67 ×10⁷ No_unit.

Question: And the Activity [10]?
Answer: Its Activity is 16.2%.

Question: And the Activity [11]?
Answer: Its Activity is “Active”.

Question: And the Activity [12]?
Answer: The Activity was “Dose-dependent effect”.

Question: What about the Activity [13] of the same molecule?
Answer: Its Activity is 15.4%.

Question: What about the Activity [14] of the same molecule?
Answer: Its Activity is “Active”.

Question: And the Activity [15]?
Answer: The Activity was “Dose-dependent effect”.

Question: What about the Activity [16] of the same molecule?
Answer: The Activity was “Dose-dependent effect”.

Question: What about the Activity [17] of the same molecule?
Answer: The Activity was “Dose-dependent effect”.

Question: And the Activity [18]?
Answer: Its Activity is “Dose-dependent effect”.

Question: And the Activity [19]?
Answer: The Activity was 19.9%.

Question: And the Activity [20]?
Answer: Its Activity is 20.3%.

Question: And the Activity [21]?
Answer: The Activity was 1.41 ×10⁷ No_unit.

Question: What about the Ratio [22] of the same molecule?
Answer: The Ratio was 1.32.

Question: And the Activity [23]?
Answer: Its Activity is “Dose-dependent effect”.

Question: And the Activity [24]?
Answer: Its Activity is 1.16 ×10⁷ No_unit.

Question: And the Ratio [25]?
Answer: Its Ratio is 1.67.

Question: And the Activity [26]?
Answer: The Activity was “Active”.

Question: And the Activity [27]?
Answer: Its Activity is “Active”.

Question: What about the Activity [28] of the same molecule?
Answer: The Activity was 1.19 ×10⁷ No_unit.

Question: What about the Ratio [29] of the same molecule?
Answer: The Ratio was 1.77.

Question: What about the Activity [30] of the same molecule?
Answer: The Activity was “Dose-dependent effect”.

Question: What about the Activity [31] of the same molecule?
Answer: The Activity was “Active”.

Question: And the Activity [32]?
Answer: Its Activity is “Active”.

Question: What about the Activity [33] of the same molecule?
Answer: Its Activity is 1.54 ×10⁷ No_unit.
